{"source": "patent US11858970B1", "about": "“Chili pepper seed isolated oligopeptide FTLE and application thereof in preventing or treating cancer” (CHINA AGRICULTURAL UNIVERSITY, priority 2022, dated 2024)", "test_system": "HepG2 cells", "assay": "HepG2 cell proliferation measured by MTT method", "assay_type": "cell-based", "conditions": "peptide at 0.1, 0.3 and 0.6 mM, 24 hours, compared with other synthetic peptides", "experimental": "Chemical systhesis was conducted in accordance with the peptide sequences obtained by mass spectrometry identification analysis of Example 1 to obtain synthetic peptides. The effect of each peptide on HepG2 cell proliferation was studied, and the specific steps were as follows:\n1) HepG2 cell culture: hepG2 cells were obtained from the ATCC cell bank and were cultured in a DMEM medium containing 10% FBS at 37° C. in a 5% CO2 cell incubator. Cells were cultured in a 25 cm ^2 flask, passaged when cells were grown to a density of 70% to 90%, and seeded in a 96-well plate.\n2) Peptide fragment treatment: after 24 hours of cell culture in the 96-well plate, the original DMEM medium was aspirated from the wells. DMEM containing peptide fragments at concentrations of 0.1, 0.3, and 0.6 mM were added to each well to continue culturing for 24 hours.\n3) Cell proliferation rate measured by MTT method: MTT at a concentration of 5 mg/mL was added to a 96-well plate in 20 μL per well. After incubation for 4 hours, the liquid was aspirated from each well. 150 μL DMSO was added to each well. The absorbance was measured after reacting for 20 min."}
{"substance": "Phe-Thr-Leu-Glu (FTLE) [oligopeptide identified in chili pepper seed zymolyte, chemically synthesized for testing]", "values": [{"measurement": "HepG2 cell inhibition rate", "value": "better HepG2 cell inhibition rate than other oligopeptides"}]}
